# Biological target: T1, pig liver glycolate oxidase (Sus scrofa, UniProt I3LVF1)
# T1 construct: The enzyme was pig liver glycolate oxidase; from tissue; host or cells: pig liver
# T1 sequence (I3LVF1 1-370): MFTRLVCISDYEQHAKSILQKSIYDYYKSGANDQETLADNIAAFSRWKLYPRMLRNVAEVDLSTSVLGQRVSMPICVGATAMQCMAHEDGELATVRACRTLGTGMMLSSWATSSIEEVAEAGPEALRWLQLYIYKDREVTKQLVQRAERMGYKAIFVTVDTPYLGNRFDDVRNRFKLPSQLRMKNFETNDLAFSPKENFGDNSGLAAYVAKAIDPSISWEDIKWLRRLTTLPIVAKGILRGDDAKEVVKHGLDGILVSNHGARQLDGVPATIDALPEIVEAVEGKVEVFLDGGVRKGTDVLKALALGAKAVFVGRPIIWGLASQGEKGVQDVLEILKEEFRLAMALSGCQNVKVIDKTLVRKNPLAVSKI
# Experiment: Glycolate Oxidase Enzyme Inhibition
# Assay type: biochemical
# Conditions: 25° C., 0.10 M phosphate buffer, pH 7.0, 3 mM EDTA; 5×10^-5 M sodium 2,6-dichlorophenol-indophenol, 2×10^-4 M sodium glycolate; initial rates 1 to 3 min., 600 nm
# Description: The usefulness of the compounds of the present invention in treating urinary tract, especially renal, calcium oxalate lithiasis, was shown by the ability of those compounds to inhibit the glycolate oxidase enzyme. […] The activity of the enzyme, in turn, was measured by following the rate of reduction of sodium 2,6-dichlorophenol-indophenol by sodium glycolate in the presence of the enzyme. The enzyme was pig liver glycolate oxidase. The reaction was followed spectrophotometrically at 600 nm. The assay was conducted at 25° C. in a 0.10 M phosphate buffer, pH 7.0, containing 3 mM EDTA. Initial substrate concentrations were 5×10^-5 M of sodium 2,6-dichlorophenol-indophenol and 2×10^-4 M of sodium glycolate. Reactions were initiated by the addition of enzyme. Initial rates during the period from 1 to 3 min. after the addition of enzyme were recorded on a Beckman Acta M-VI spectrophotometer. One control was run simultaneously with three test reactions, and all initial rates were adjusted to a common control rate. For further details of this procedure, see Randall et al., J. Med. Chem. 22, 6, 612 (1979).
structure (smiles),measurement,value
"O=C1NS(=O)(=O)C(c2ccccc2)=C1O [4-Hydroxy-5-phenyl-3(2H)-isothiazolone-1,1-dioxide]",IC50,2100 nM
